According to patent US20220081481A1, “USE OF AGENTS CAPABLE OF INDUCING LC3-ASSOCIATED PHAGOCYTOSIS FOR TREATING SUSTAINED INFLAMMATION IN PATIENTS SUFFERING FROM CHRONIC LIVER DISEASE” (INSERM (INSTITUT NATIONAL DE LA SANTÉ ET DE LA RECHERCHE …, priority 2019, published 2022):
Ends that are not written are not given here.

Tested on: CD14+ cells from patients and healthy donors PBMC
Test: Flow cytometry of IL8+ production in CD14+ cells of PBMC
Assay type: cell-based, human
Settings: for number of CD14+IL8+ monocytes: cirrhotic monocytes vs control-treated cells from healthy donors, 10 mM 3-MA, 10 μM DPI, 30 μM N8, 4 hrs, FIG. 1B; for inflammatory signature in blood monocytes: healthy donors and patients, prominent increase in cells from patients, 4 hrs at 37° C., FIG. 1B and 1C
Description: FIG. 1: Inhibition of LAP components enhances the inflammatory signature in blood monocytes from patients with cirrhosis. (A). Inverse correlation between circulating C-Reactive Protein (CRP) levels and the number of LC3+ pHrodo+ phagosomes containing E. Coli bioparticles in blood monocytes from patients with cirrhosis (n=14). *p=0.005, r=-0.7 for LC3+ pHrodo+ phagosomes number vs CRP. (B). PBMC were incubated for 4 hrs at 37° C. with either vehicle, 10 mM 3-MA, 10 μM DPI, 30 μM N8 or control mutant […] peptides Percentage of IL8+ production in CD14+ cells from patients (n=8) and healthy donors (n=6) PBMC. (C). RT-PCR analysis of inflammatory gene expression in blood monocytes from healthy donors (n=6-8) and cirrhotic patients (n=6-11). Results are expressed as fold over respective control. *p<0.05, **p<0.001 for healthy vs cirrhotic. Statistical analysis was performed using Spearman correlation test (A), Mann-Whitney (b, for comparison between healthy and cirrhosis) and Wilcoxon matched-pairs signed rank test (B, for treatment). Peripheral blood mononuclear cells (PBMC) and monocyte isolation. PBMC were prepared from the blood of cirrhotic patients and healthy donors, using Ficoll density gradient centrifugation (Ficoll PaqueTM-plus, GE Healthcare, 17-1440-02), as previously described^43. Cell treatment. Human monocytes, THP1-XBlueTM-CD14 (Invivogen, Catalog #[…] THP1-FcγRIIA+-CD14+(kindly provided by Novimmune) monocytes were used. When indicated cells were exposed to either 30 μM chloroquine diphosphate (Sigma, C6628), 10 mM 3-Methyladenine (3-MA, Sigma, M9281-100 mg), 10 mM Diphenyleneiodonium chloride (DPI, Sigma, D2926-10 mg), or 10 mg/ml IVIg (Privigen, 100 mg/ml) for 4 hrs at 37° C., as indicated. […] In some experiments, cells were exposed to the preformed complex (10 μg/ml of mouse anti-hFcγRII mAb (clone AT-10, Santa Cruz, sc-13527) F(ab')2 fragments+20 μg/ml goat anti-mouse anti-kappa F(ab')2 fragments (Southern Biotech, 1052-01) or to 100 μg/ml of anti-hFcγRIIA mAb F(ab')2 fragments (clone IV.3), purified as we previously described^26. Flow cytometry. For surface and intracellular staining, PBMC (1×10^6) were centrifuged at 4° C. at 500 g for 5 min and stained in the dark for 30 min at 4° C. in flow cytometry staining buffer (5% FCS-PBS) containing fluorochrome-conjugated antibodies (APC-CD14, clone HCD14, Biolegend, 325608), CD11b-PE-vio 770 (clone REA592, Miltenyi Biotec, 130-109-287), CD16 Brilliant violet 605 (clone3G8, 302040, Biolegend) and FITC-FcγRIIA (clone […] Technologies, 60012FI). […] Data acquisition was performed using a BD Biosciences LSR Fortessa cytometer and data were analysed using FlowJo analysis software (Tree Star).

Molecule | number of CD14+IL8+ monocytes | inflammatory signature in blood monocytes
N8 peptide: Tat-conjugated peptide of eight N-terminal amino acids (3-10) of p22phox that blocks the Rubicon-p22phox interaction (QIEWAMWA; also: Tat cell-penetrating peptide conjugate, attachment not given here; UniProt P13498 3-10, looked up, fragment) | significantly higher | enhanced
Cn1cnc(N)c2ncnc1-2 [3-MA, 3-Methyladenine] | significantly higher | enhanced
